In patent US3939266A, “Substituted sulfonylacetamido cephalosporins” (SmithKline Corporation, priority 1974, dated 1976) one finds MIC data, which are given here for 3 molecules.

Holding throughout (format): cell-based
One test concerns Entero. cloaca PaSL 969. Kind of test: MIC against Entero. cloaca PaSL 969.
The test system of another test is Kleb. pneumo. SK 1200. Nature of the test: MIC against Kleb. pneumo. SK 1200.
The subject of another test is Salmonella ATCC 12176. Nature of the test: MIC against Salmonella ATCC 12176. As to conditions: ATCC12176; Salmonella ATCC 12176; read-out: MIC.
A further test deals with Strep. pyog. C 203. Nature of the test: MIC against Strep. pyog. C 203.
For a further test, the system named is Kleb. pneumo. SK 4200. Kind of test: MIC against Kleb. pneumo. SK 4200.
The test system of a further test is E. coli SK 12140. Nature of the test: MIC against E. coli SK 12140. Conditions: Escherichia coli, SK12140; E. coli SK 12140; read-out: MIC.
Test [1] concerns Entero. aerog. ATCH 13048. Nature of the test: MIC against Entero. aerog. ATCH 13048.
A further test deals with Serra. marc. ATCC 13880. Kind of test: MIC against Serra. marc. ATCC 13880.
For a further test, the system named is S. villaluz. Nature of the test: MIC against S. villaluz.
The next test concerns S. aureus HH 127. Nature of the test: MIC against S. aureus HH 127. Conditions: Staphylococcus aureus, HH127.
A further test has as its system Pseudo. sp. HH 63. Kind of test: MIC against Pseudo. sp. HH 63.
Another test concerns S. aureus SK 23390. Nature of the test: MIC against S. aureus SK 23390. As to conditions: Staphylococcus aureus, SK23390.
A further test has as its system E. coli HH 33779. Nature of the test: MIC against E. coli HH 33779. As to conditions: Escherichia coli, HH33779.
The test system of a further test is Shigella HH 112. Kind of test: MIC against Shigella HH 112. As to conditions: HH112; Shigella HH 112; read-out: MIC.
The next test has as its system Strep. faecalis HH 34358. Kind of test: MIC against Strep. faecalis HH 34358. Conditions: Enterococcus faecalis, HH34358.

≈ marks a conversion by molar mass, not a printed value.

Turning to `CS(=O)(=O)CC(=O)NC1C(=O)N2C(C(=O)[O-])=C(C[n+]3ccccc3)CSC12` (stereo not drawn) [Compound 59345, 7-Methylsulfonylacetamido-3-(1-pyridiniummethyl)-3-cephem-4-carboxylic acid], the MIC against Entero. cloaca PaSL 969 was more than 200 µg/mL; with Kleb. pneumo. SK 1200, 100 µg/mL (≈ 243 µM); in the test with Salmonella ATCC 12176 it was 50 µg/mL (≈ 122 µM); against Strep. pyog. C 203, 0.1 µg/mL (≈ 0.243 µM); with Kleb. pneumo. SK 4200, 50 µg/mL (≈ 122 µM); in the test with E. coli SK 12140, 100 µg/mL (≈ 243 µM). The MIC in [1] was more than 200 µg/mL; against Serra. marc. ATCC 13880, more than 200 µg/mL; with S. villaluz, 25 µg/mL (≈ 60.8 µM); against S. aureus HH 127, 0.8 µg/mL (≈ 1.94 µM); in the test with Pseudo. sp. HH 63 it was more than 200 µg/mL; in the test on S. aureus SK 23390 it was 0.8 µg/mL (≈ 1.94 µM). The MIC with E. coli HH 33779 is 100 µg/mL (≈ 243 µM); in the test on Shigella HH 112 it was 50 µg/mL (≈ 122 µM); in the test on Strep. faecalis HH 34358, 100 µg/mL (≈ 243 µM).
Turning to `CC1=C(C(=O)O)N2C(=O)C(NC(=O)CS(C)(=O)=O)[C@H]2SC1` (stereo partly drawn) [Compound 59454, 7-Methylsulfonylacetamido-3-methyl-3-cephem-4-carboxylic acid], the MIC is more than 200 µg/mL with Entero. cloaca PaSL 969; more than 200 µg/mL against Kleb. pneumo. SK 1200; more than 200 µg/mL in the test with Salmonella ATCC 12176; 0.4 µg/mL (≈ 1.2 µM) against Strep. pyog. C 203; more than 200 µg/mL against Kleb. pneumo. SK 4200; more than 200 µg/mL with E. coli SK 12140. The MIC was more than 200 µg/mL in test [1]; more than 200 µg/mL with Serra. marc. ATCC 13880; more than 200 µg/mL in the test on S. villaluz; 25 µg/mL (≈ 74.8 µM) in the test on S. aureus HH 127; more than 200 µg/mL in the test with Pseudo. sp. HH 63; 25 µg/mL (≈ 74.8 µM) with S. aureus SK 23390. Also, the MIC with E. coli HH 33779, in the test with Shigella HH 112 and in the test with Strep. faecalis HH 34358 was more than 200 µg/mL each time.
Regarding `Cc1nc(SCC2=C(C(=O)O)N3C(=O)C(NC(=O)CS(C)(=O)=O)C3SC2)n[nH]1` (stereo not drawn) [Compound 59586], the minimal inhibitory concentration (MIC) in the test with Entero. cloaca PaSL 969 is more than 200 µg/mL; in the test on Kleb. pneumo. SK 1200 it was 3.1 µg/mL (≈ 6.93 µM); with Salmonella ATCC 12176 it was 1.6 µg/mL (≈ 3.58 µM); in the test on Strep. pyog. C 203, 0.2 µg/mL (≈ 0.447 µM); against Kleb. pneumo. SK 4200 it was 3.1 µg/mL (≈ 6.93 µM); in the test with E. coli SK 12140, 6.3 µg/mL (≈ 14.1 µM). The minimum inhibitory concentration (MIC) in test [1] was 200 µg/mL (≈ 447 µM); against Serra. marc. ATCC 13880, more than 200 µg/mL; against S. villaluz it was 100 µg/mL (≈ 223 µM); against S. aureus HH 127, 1.6 µg/mL (≈ 3.58 µM); in the test with Pseudo. sp. HH 63 it was more than 200 µg/mL; in the test with S. aureus SK 23390, 0.8 µg/mL (≈ 1.79 µM). Besides, the minimal inhibitory concentration (MIC) with E. coli HH 33779 was 25 µg/mL (≈ 55.9 µM); in the test on Shigella HH 112, 12.5 µg/mL (≈ 27.9 µM); in the test on Strep. faecalis HH 34358, 100 µg/mL (≈ 223 µM).
